Where “and” joins values, the source holds several entries; their conditions need not be identical. Identical values can stand only once.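 Tested at 5 concentrations; 48 h exposure; 96-well plates; endpoints linearly interpolated, else capped at highest concentration. Abbreviation: GI50, concentration required for 50% inhibition of growth. At the TGI there is no net growth.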
Legend:
Assay in all cases: NCI-60 cell line screen, 48 h
786-0 renal = system: 786-0 renal
HCT-116 colon = system: HCT-116 colon
HT29 colon = system: HT29 colon
IGROV1 ovarian = system: IGROV1 ovarian
MALME-3M melanoma = system: MALME-3M melanoma
SK-MEL-28 melanoma = system: SK-MEL-28 melanoma
SR leukemia = system: SR leukemia
UACC-257 melanoma = system: UACC-257 melanoma
UO-31 renal = system: UO-31 renal
MDA-MB-435 = system: MDA-MB-435

Row | Compound | TGI (786-0 renal) | TGI (HCT-116 colon) | TGI (HT29 colon) | TGI (IGROV1 ovarian) | TGI (MALME-3M melanoma) | TGI (SK-MEL-28 melanoma) | TGI (SR leukemia) | TGI (UACC-257 melanoma) | TGI (UO-31 renal) | GI50 (786-0 renal) | GI50 (HCT-116 colon) | GI50 (HT29 colon) | GI50 (IGROV1 ovarian) | GI50 (MALME-3M melanoma) | GI50 (SK-MEL-28 melanoma) | GI50 (SR leukemia) | GI50 (UACC-257 melanoma) | GI50 (UO-31 renal) | GI50 (MDA-MB-435) | TGI (MDA-MB-435)
1 | N#CCCC[Si]12OCCN(CCO1)CCO2 | > 100 µM | > 100 µM | > 100 µM | > 100 µM | > 100 µM | > 100 µM | > 100 µM | > 100 µM | > 100 µM |  |  |  |  |  |  |  |  |  |  | 
2 | CN1C(=O)C(=O)N2c3ccc(Cl)cc3C3(c4ccccc4)N=CC12O3 (stereo not drawn) | 28.9 µM | 13.2 µM | 16.1 µM | 40 µM | 47.2 µM | 12.1 µM |  | 19 µM | 18.1 µM |  |  |  |  |  |  |  |  |  |  | 
3 | Cc1[cH-]c(=O)n(-c2ccccc2)n1.[Au+].[Au].c1ccc([PH+](c2ccccc2)c2ccccc2)cc1.c1ccc([PH+](c2ccccc2)c2ccccc2)cc1 | 5.53 µM and 16.6 µM | 38.9 µM | > 100 µM | 31.7 µM | 31.1 µM | 14.9 µM | > 100 µM | 91.3 µM | > 100 µM | 1.6 µM and 4.03 µM | 20200 nM | 53.5 µM | 13.6 µM | 9.61 µM | 2520 nM | 26.4 µM | 25.4 µM | 11.6 µM |  | 
4 | Cn1cc(-c2cc3c(N4CCN(c5ncc([C@@](C)(N)c6ccc(F)cc6)cn5)CC4)ncnn3c2)cn1 | > 100 µM | > 100 µM | > 100 µM | > 100 µM | > 100 µM |  |  | > 100 µM | > 100 µM | 3.15 µM | 3150 nM | 3.35 µM | 2.7 µM | 4.16 µM |  |  | 5 µM | 1.84 µM | 3.56 µM | > 100 µM
5 | CCOC(=O)C1Sc2ccccc2N=C1C (stereo not drawn) | > 100 µM | > 100 µM | > 100 µM | > 100 µM | > 100 µM | > 100 µM | > 100 µM | > 100 µM | > 100 µM |  |  |  |  |  |  |  |  |  |  | 
6 | [O-][Cl+3]([O-])([O-])[O-].[O]=[Ru]=[O].c1ccc(-c2ccccn2)nc1.c1ccc(-c2ccccn2)nc1 | > 100 µM |  | > 100 µM | > 100 µM | > 100 µM | > 100 µM | 34.7 µM | > 100 µM | > 100 µM | > 100 µM |  | > 100 µM | 58.8 µM | > 100 µM | 92100 nM | 4.07 µM | > 100 µM | > 100 µM |  | 
7 | Clc1ccc2cccc3c2c1C1OC3c2ccccc21 (stereo not drawn) | > 100 µM | > 100 µM | > 100 µM | > 100 µM | > 100 µM | > 100 µM | > 100 µM | > 100 µM | > 100 µM |  |  |  |  |  |  |  |  |  |  | 
8 | Cc1nnc2ccnn2c1C | > 100 µM | > 100 µM |  | > 100 µM |  | > 100 µM |  |  | > 100 µM | > 100 µM | > 100000 nM |  | > 100 µM |  | > 100000 nM |  |  | > 100 µM | > 100 µM | > 100 µM
9 | CCC(C)SC1SCC2C(=O)N(C)C3(CC3C)C(=O)OCC(NC(=O)c3nc4ccccc4cc3O)C(=O)NC(C)C(=O)N(C)C1C(=O)N(C)C1(CC1C)C(=O)OCC(NC(=O)c1nc3ccccc3cc1O)C(=O)NC(C)C(=O)N2C (stereo not drawn) | 1.3 µM |  | 0.00788 µM | 3.54 µM | 0.000422 µM | 0.000138 µM |  | 0.000219 µM | 0.0127 µM |  | 0.0288 nM | 1.48e-05 µM |  |  | 0.0302 nM |  |  |  |  | 0.00019 µM
10 | O=C1C(C(Nc2ccccc2)c2ccccc2)=C([O-])c2ccccc21.O=C1C(C(Nc2ccccc2)c2ccccc2)=C([O-])c2ccccc21.[Cu+2] (stereo not drawn) | > 100 µM | > 100 µM | > 100 µM | > 100 µM | > 100 µM | > 100 µM | > 100 µM | > 100 µM | > 100 µM | 48.3 µM | 12000 nM | 33.1 µM | 54.5 µM | 65.8 µM | > 100000 nM | 42.2 µM | > 100 µM | 32.2 µM |  | 
11 | CN(C)CC(O)c1ccc(/C=C/c2ccc(Cl)cc2)cc1 (stereo not drawn) | 2.99 µM | 2.78 µM |  | 2.64 µM | 3.34 µM | 3.45 µM |  | 3.15 µM | 2.61 µM | 1.63 µM | 1460 nM |  | 1.21 µM | 1.6 µM | 1840 nM |  | 1.63 µM | 1.3 µM | 1.62 µM | 3.13 µM
12 | O=c1c2cccnc2ncn1CCN1CCCCC1 | > 100 µM | > 100 µM | > 100 µM | > 100 µM | > 100 µM | > 100 µM | > 100 µM |  | > 100 µM |  |  |  |  |  |  |  |  |  |  | 
13 | CN(C)CC1CCCC/C1=N/O (stereo not drawn) | > 100 µM | > 100 µM | > 100 µM | > 100 µM | > 100 µM | > 100 µM |  | > 100 µM | > 100 µM |  |  |  |  |  |  |  |  |  |  | 
14 | CC(=O)[O-].CC(=O)[O-].O=C(N/N=C/c1cc(Cl)cc(Cl)c1O)c1ccncc1.[Cu+2] | > 100 µM | > 100 µM | > 100 µM | > 100 µM | > 100 µM | > 100 µM | > 100 µM | > 100 µM | > 100 µM |  |  |  |  |  |  |  |  |  |  | 
15 | COc1ccc(/C=C/COC(C)=O)cc1OC | > 100 µM |  | > 100 µM | > 100 µM | > 100 µM | > 100 µM | > 100 µM | > 100 µM | > 100 µM |  |  |  |  |  |  |  |  |  |  | 
16 | CN(C)C=Nc1nc(=O)n(C2CCC(CO)O2)cc1F (stereo not drawn) | > 100 µM |  | > 100 µM |  | > 100 µM | > 100 µM |  | > 100 µM | > 100 µM |  |  |  |  |  |  |  |  |  |  | 
17 | Cc1nc(-c2nc(C)c(C(=O)NNC(=O)C[n+]3ccccc3)s2)sc1C(=O)NNC(=O)C[n+]1ccccc1 | > 100 µM | > 100 µM | > 100 µM | > 100 µM | > 100 µM | > 100 µM |  | > 100 µM | 80.5 µM |  |  |  |  |  |  |  |  |  |  | 
18 | CCOC(=O)n1cc(C2=C(c3ccc(OC)c(OC)c3)COC2=O)c2ccccc21 | > 100 µM | > 100 µM | > 100 µM | > 100 µM | > 100 µM | > 100 µM | > 100 µM | > 100 µM | > 100 µM | 0.0625 µM | 48.2 nM | 0.0364 µM | 0.0555 µM | 0.0666 µM | 271 nM | 0.0297 µM | 16.1 µM | 0.0632 µM |  | 
19 | COC1=CC(=O)C(C2(OC(C)C)OC(=O)C(Cl)=C2Cl)=CC1=O (stereo not drawn) | 86.4 µM | > 100 µM | > 100 µM |  | > 100 µM | > 100 µM |  | > 100 µM | > 100 µM |  |  |  |  |  |  |  |  |  |  | > 100 µM
20 | O=C(O)CSc1n[nH]c(-c2ccccc2O)n1 | > 100 µM | > 100 µM | > 100 µM | > 100 µM | > 100 µM | > 100 µM | > 100 µM | > 100 µM | > 100 µM |  |  |  |  |  |  |  |  |  |  | 
21 | C#Cc1cccc(Nc2nc3cc([N+](=O)[O-])ccc3nc2Nc2ccc(O)cc2)c1 | 3.43 µM | 2.9 µM | 3.42 µM | 4.37 µM | 4.32 µM | 3.34 µM |  | 4.34 µM | 3.12 µM | 1.59 µM | 1460 nM | 1.71 µM | 1.78 µM | 1.93 µM | 1780 nM |  | 2.09 µM | 1.53 µM | 1.67 µM | 3.39 µM
22 | CCCOc1nc(N)c2cnn(C3CCCCO3)c2n1 (stereo not drawn) | > 100 µM | > 100 µM | > 100 µM | > 100 µM | > 100 µM | > 100 µM | > 100 µM | > 100 µM | > 100 µM |  |  |  |  |  |  |  |  |  |  | 
23 | CN(C)C(=S)/N=c1\ssc(=S)n1C1CCCCC1 | 31.6 µM | 32.3 µM | > 100 µM | > 100 µM | 64.8 µM | > 100 µM | 63.1 µM | 64.9 µM | > 100 µM |  |  |  |  |  |  |  |  |  |  | 
24 | O=S1C(=c2ccc(=C3Sc4ccccc4S3)cc2)Sc2ccccc21 (stereo not drawn) | 30.8 µM | > 56.6 µM | 49.2 µM | > 95.5 µM | > 100 µM | 7 µM | > 100 µM | > 100 µM | 35.2 µM |  |  |  |  |  |  |  |  |  |  | 
25 | Cc1ccc(S(=O)(=O)N2CCC2c2ccccc2)cc1 (stereo not drawn) | > 100 µM | > 100 µM | > 100 µM | > 100 µM | > 100 µM | > 100 µM |  | > 100 µM | > 100 µM |  |  |  |  |  |  |  |  |  |  | 
26 | O=c1[nH]c(-c2ccccc2)nc2cc(Cl)ccc12 | > 100 µM | > 100 µM | > 100 µM | > 100 µM | > 100 µM | > 100 µM |  | > 100 µM | > 100 µM |  |  |  |  |  |  |  |  |  |  | 
27 | COc1c(CC(C)=O)ccc2c1C(=O)c1ccc(C=O)c(OC(C)=O)c1C2=O | 21.4 µM | 24.9 µM | 37.9 µM | 44.2 µM | 25.5 µM | 23 µM |  | 28.3 µM | 41.4 µM |  |  |  |  |  |  |  |  |  |  | 
28 | CN(C)CC1CCC/C1=N/OC(=O)c1ccccc1 (stereo not drawn) | > 100 µM | > 100 µM | > 100 µM | > 100 µM |  | > 100 µM | > 100 µM | > 100 µM | > 100 µM |  |  |  |  |  |  |  |  |  |  | 
29 | COc1ccc2c(c1)[n+]([O-])c(C(N)=O)c(N)[n+]2[O-] | > 100 µM | > 100 µM | > 100 µM | > 100 µM | > 100 µM | > 100 µM | > 100 µM | 94.6 µM | > 100 µM |  |  |  |  |  |  |  |  |  |  | 
30 | O=C(NC1C=CCC2C(=O)N(c3ccccc3)C(=O)C12)OCc1ccccc1 (stereo not drawn) | > 100 µM | > 100 µM | > 100 µM | > 100 µM |  | > 100 µM | > 100 µM | > 100 µM | > 100 µM |  |  |  |  |  |  |  |  |  |  | 

From PubChem BioAssay (NCI)
